Measurements: patent US20250049035A1, “MICROBIOCIDAL BICYCLE HETEROCYCLIC DERIVATIVES” (SYNGENTA CROP PROTECTION AG, priority 2021, published 2025)

Tests used:
[1] = tested on: Mycosphaerella graminicola (Septoria tritici); assay: Mycosphaerella graminicola (Septoria tritici) / liquid culture (Septoria blotch); assay type: cell-based; conditions: Zymoseptoria tritici, liquid culture (potato dextrose broth), growth inhibition photometrically 4-5 days after application, compared to untreated control
Description: (§1) Example B15: Mycosphaerella graminicola (Septoria tritici/Liquid Culture (Septoria Blotch) Conidia of the fungus from cryogenic storage are directly mixed into a nutrient broth (potato dextrose broth). After placing a DMSO solution of test compound into a microtiter plate (96-well format), the nutrient broth containing the fungal spores is added. The test plates are incubated at 24° C. and the inhibition of growth is determined photometrically 4-5 days after application.

[2] = tested on: Monographella nivalis (Microdochium nivale); assay: Monographella nivalis (Microdochium nivale) / liquid culture (foot rot cereals); assay type: cell-based; conditions: liquid culture (potato dextrose broth), growth inhibition photometrically 4-5 days after application, compared to untreated control
Description: as §1, with “B9: Monographella nivalis (Microdochium nivale)/Liquid” for “B15: Mycosphaerella graminicola (Septoria tritici/Liquid”, “(Foot Rot Cereals)” for “(Septoria Blotch)”

[3] = tested on: Botryotinia fuckeliana (Botrytis cinerea); assay: Botryotinia fuckeliana (Botrytis cinerea) / liquid culture (gray mould); assay type: cell-based; conditions: liquid culture (Vogels broth), growth inhibition photometrically 3-4 days after application, compared to untreated control
Description: as §1, with “B2: Botryotinia fuckeliana (Botrytis cinerea)/Liquid” for “B15: Mycosphaerella graminicola (Septoria tritici/Liquid”, “(Gray Mould)” for “(Septoria Blotch)”, “(Vogels” for “(potato dextrose”, “3-4” for “4-5”

Alternaria solani = Alternaria solani / tomato / leaf disc (early blight); assay type: in vivo; conditions: foliar, tomato leaf disks cv. Baby, inoculated 2 days after application, assessed 5-7 days after application, compared to untreated control
Description: Example B1: Alternaria solani/Tomato/Leaf Disc (Early Blight) Tomato leaf disks cv. Baby are placed on agar in multiwell plates (24-well format) and sprayed with the formulated test compound diluted in water. The leaf disks are inoculated with a spore suspension of the fungus 2 days after application. The inoculated leaf disks are incubated at 23° C./21° C.

[4] = tested on: Glomerella lagenarium (Colletotrichum lagenarium); assay: Glomerella lagenarium (Colletotrichum lagenarium) / liquid culture (anthracnose); assay type: cell-based; conditions: Colletotrichum orbiculare, liquid culture (potato dextrose broth), growth inhibition photometrically 3-4 days after application, compared to untreated control
Description: as §1, with “B3: Glomerella lagenarium (Colletotrichum lagenarium)/Liquid” for “B15: Mycosphaerella graminicola (Septoria tritici/Liquid”, “(Anthracnose)” for “(Septoria Blotch)”, “measured” for “determined”, “3-4” for “4-5”

[5] = tested on: Phaeosphaeria nodorum (Septoria nodorum); assay: Phaeosphaeria nodorum (Septoria nodorum) / wheat / leaf disc preventative (glume blotch); assay type: in vivo; conditions: Parastagonospora nodorum, foliar, wheat leaf segments cv. Kanzler, inoculated 2 days after application, assessed 5-7 days after application, compared to untreated control
Description: Example B8: Phaeosphaeria Nodorum (Septoria nodorum)/Wheat/Leaf Disc Preventative (Glume Blotch) Wheat leaf segments cv. Kanzler are placed on agar in a multiwell plate (24-well format) and sprayed with the formulated test compound diluted in water. The leaf disks are inoculated with a spore suspension of the fungus 2 days after application. The inoculated test leaf disks are incubated at 20° C. and 75% relative humidity under a light regime of 12 h light/12 h darkness in a climate cabinet and the activity of a compound is assessed as percent disease control compared to untreated when an appropriate level of disease damage appears in untreated check leaf disks (5-7 days after application).

[6] = tested on: Mycosphaerella arachidis (Cercospora arachidicola); assay: Mycosphaerella arachidis (Cercospora arachidicola) / liquid culture (early leaf spot); assay type: cell-based; conditions: liquid culture (potato dextrose broth), growth inhibition photometrically 4-5 days after application, compared to untreated control
Description: as §1, with “B10:” for “B15:”, “arachidis (Cercospora arachidicola)/Liquid” for “graminicola (Septoria tritici/Liquid”, “(Early Leaf Spot)” for “(Septoria Blotch)”, “broth)” for “broth).”

Pyrenophora teres = Pyrenophora teres / barley / leaf disc preventative (net blotch); assay type: in vivo; conditions: foliar, barley leaf segments cv. Hasso, inoculated 2 days after application, assessed 5-7 days after application, compared to untreated control
Description: Example B12: Pyrenophora teres/Barley/Leaf Disc Preventative (Net Blotch) Barley leaf segments cv. Hasso are placed on agar in a multiwell plate (24-well format) and sprayed with the formulated test compound diluted in water. The leaf segments are inoculated with a spore suspension of the fungus 2 days after application. The inoculated leaf segments are incubated at 20° C. and 65% relative humidity under a light regime of 12 h light/12 h darkness in a climate cabinet and the activity of a compound is assessed as disease control compared to untreated when an appropriate level of disease damage appears in untreated check leaf segments (5-7 days after application).

C[C@@H]1c2sccc2[C@H](c2cnn(C)c2)CN1C(=O)c1nnc(-c2ccc(F)cc2F)s1 [Compound P-1, [5-(2,4-difluorophenyl)-1,3,4-thiadiazol-2-yl]-[(4S,7R)-7-methyl-4-(1-methylpyrazol-4-yl)-5,7-dihydro-4H-thieno[2,3-c]pyridin-6-yl]methanone]
≥ 80%: inhibition of growth at 20 ppm [1] | inhibition of growth at 20 ppm [2]

Cn1cc(C2CN(C(=O)c3cc(-c4ccc(F)cc4F)on3)Cc3sncc32)cn1 (centres unmarked) [Compound P-26, [5-(2,4-difluorophenyl)isoxazol-3-yl]-[4-(1-methylpyrazol-4-yl)-5,7-dihydro-4H-isothiazolo[5,4-c]pyridin-6-yl]methanone]
≥ 80%: inhibition of growth at 20 ppm [3] | inhibition of growth at 20 ppm [1] | inhibition of growth at 20 ppm [2] | pest or weed control at 200 ppm (Alternaria solani) | inhibition of growth at 20 ppm [4] | pest or weed control at 200 ppm [5]

Cc1c(C2CN(C(=O)c3cc(-c4ccccc4F)on3)Cc3sccc32)cnn1C (centres unmarked) [Compound P-31, [4-(1,5-dimethylpyrazol-4-yl)-5,7-dihydro-4H-thieno[2,3-c]pyridin-6-yl]-[5-(2-fluorophenyl)isoxazol-3-yl]methanone]
≥ 80%: inhibition of growth at 20 ppm [3] | inhibition of growth at 20 ppm [1] | inhibition of growth at 20 ppm [2] | pest or weed control at 200 ppm (Alternaria solani) | inhibition of growth at 20 ppm [4] | inhibition of growth at 20 ppm [6] | pest or weed control at 200 ppm (Pyrenophora teres) | pest or weed control at 200 ppm [5]

C[C@@H]1c2sccc2[C@](C)(c2cnn(C)c2)CN1C(=O)c1nnc(-c2ccc(F)cc2F)s1 [Compound P-5, [5-(2,4-difluorophenyl)-1,3,4-thiadiazol-2-yl]-[(4S,7R)-4,7-dimethyl-4-(1-methylpyrazol-4-yl)-5,7-dihydrothieno[2,3-c]pyridin-6-yl]methanone]
≥ 80%: inhibition of growth at 20 ppm [4] | inhibition of growth at 20 ppm [6]

Cn1cc(C2(C)CN(C(=O)c3nnc(-c4ccc(F)cc4F)s3)Cc3ccsc32)cn1 (centres unmarked) [Compound P-22, [5-(2,4-difluorophenyl)-1,3,4-thiadiazol-2-yl]-[7-methyl-7-(1-methylpyrazol-4-yl)-4,6-dihydrothieno[3,2-c]pyridin-5-yl]methanone]
≥ 80%: inhibition of growth at 20 ppm [3] | inhibition of growth at 20 ppm [1] | inhibition of growth at 20 ppm [2] | inhibition of growth at 20 ppm [4] | inhibition of growth at 20 ppm [6] | pest or weed control at 200 ppm (Pyrenophora teres) | pest or weed control at 200 ppm [5]

C[C@@H]1c2sccc2[C@@H](c2cnn(C)c2)CN1C(=O)c1nnc(-c2ccc(F)cc2F)s1 (racemic) [Compound P-16, [5-(2,4-difluorophenyl)-1,3,4-thiadiazol-2-yl]-[rac-(4R,7R)-7-methyl-4-(1-methylpyrazol-4-yl)-5,7-dihydro-4H-thieno[2,3-c]pyridin-6-yl]methanone]
≥ 80%: inhibition of growth at 20 ppm [1]

Cc1c(C2CN(C(=O)c3cc(-c4ccc(F)cc4F)on3)Cc3ncsc32)cnn1C (centres unmarked) [Compound P-28, [5-(2,4-difluorophenyl)isoxazol-3-yl]-[7-(1,5-dimethylpyrazol-4-yl)-6,7-dihydro-4H-thiazolo[4,5-c]pyridin-5-yl]methanone]
≥ 80%: inhibition of growth at 20 ppm [1] | inhibition of growth at 20 ppm [2] | pest or weed control at 200 ppm (Alternaria solani) | inhibition of growth at 20 ppm [4] | inhibition of growth at 20 ppm [6] | pest or weed control at 200 ppm (Pyrenophora teres) | pest or weed control at 200 ppm [5]

Cc1c([C@@H]2CN(C(=O)c3cc(-c4ccc(F)cc4F)on3)Cc3ccsc32)cnn1C [Compound P-4, [5-(2,4-difluorophenyl)isoxazol-3-yl]-[(7R)-7-(1,5-dimethylpyrazol-4-yl)-6,7-dihydro-4H-thieno[3,2-c]pyridin-5-yl]methanone]
≥ 80%: inhibition of growth at 20 ppm [1] | inhibition of growth at 20 ppm [2] | pest or weed control at 200 ppm (Alternaria solani) | inhibition of growth at 20 ppm [4] | pest or weed control at 200 ppm (Pyrenophora teres) | pest or weed control at 200 ppm [5]

CC1c2ccsc2C(C)(c2cnn(C)c2)CN1C(=O)c1cc(-c2ccc(F)cc2F)on1 (centres unmarked) [Compound P-20, [5-(2,4-difluorophenyl)isoxazol-3-yl]-[4,7-dimethyl-7-(1-methylpyrazol-4-yl)-4,6-dihydrothieno[3,2-c]pyridin-5-yl]methanone]
≥ 80%: inhibition of growth at 20 ppm [3] | inhibition of growth at 20 ppm [1] | pest or weed control at 200 ppm (Alternaria solani) | inhibition of growth at 20 ppm [4] | inhibition of growth at 20 ppm [6] | pest or weed control at 200 ppm [5]

Cn1cc(C2CN(C(=O)c3cc(-c4ccc(F)cc4F)on3)Cc3cnsc32)cn1 (centres unmarked) [Compound P-23, [5-(2,4-difluorophenyl)isoxazol-3-yl]-[7-(1-methylpyrazol-4-yl)-6,7-dihydro-4H-isothiazolo[4,5-c]pyridin-5-yl]methanone]
≥ 80%: inhibition of growth at 20 ppm [1] | inhibition of growth at 20 ppm [2] | pest or weed control at 200 ppm (Alternaria solani) | inhibition of growth at 20 ppm [4]

C[C@H]1c2ccsc2[C@@](C)(c2cnn(C)c2)CN1C(=O)c1nnc(-c2ccc(F)cc2F)s1 (racemic) [Compound P-8, [5-(2,4-difluorophenyl)-1,3,4-thiadiazol-2-yl]-[rac-(4R,7R)-4,7-dimethyl-7-(1-methylpyrazol-4-yl)-4,6-dihydrothieno[3,2-c]pyridin-5-yl]methanone]
≥ 80%: inhibition of growth at 20 ppm [3] | inhibition of growth at 20 ppm [1] | inhibition of growth at 20 ppm [2] | pest or weed control at 200 ppm (Alternaria solani) | inhibition of growth at 20 ppm [4] | inhibition of growth at 20 ppm [6] | pest or weed control at 200 ppm (Pyrenophora teres)

Cc1nn(C)c(C)c1C1CN(C(=O)c2cc(-c3ccc(F)cc3F)on2)Cc2ccsc21 (centres unmarked) [Compound P-37, [5-(2,4-difluorophenyl)isoxazol-3-yl]-[7-(1,3,5-trimethylpyrazol-4-yl)-6,7-dihydro-4H-thieno[3,2-c]pyridin-5-yl]methanone]
≥ 80%: inhibition of growth at 20 ppm [1] | inhibition of growth at 20 ppm [2] | pest or weed control at 200 ppm (Alternaria solani) | inhibition of growth at 20 ppm [6]

Cc1nn(C)c(C)c1C1CN(C(=O)c2cc(-c3ccc(F)cc3F)on2)Cc2sccc21 (centres unmarked) [Compound P-36, [5-(2,4-difluorophenyl)isoxazol-3-yl]-[4-(1,3,5-trimethylpyrazol-4-yl)-5,7-dihydro-4H-thieno[2,3-c]pyridin-6-yl]methanone]
≥ 80%: inhibition of growth at 20 ppm [3] | inhibition of growth at 20 ppm [1] | inhibition of growth at 20 ppm [2] | pest or weed control at 200 ppm (Alternaria solani) | inhibition of growth at 20 ppm [4] | inhibition of growth at 20 ppm [6] | pest or weed control at 200 ppm (Pyrenophora teres)

Cn1cc(C2CN(C(=O)c3cc(-c4ccc(F)cc4F)on3)Cc3cscc32)cn1 (centres unmarked) [Compound P-29]
≥ 80%: inhibition of growth at 20 ppm [3] | inhibition of growth at 20 ppm [1] | inhibition of growth at 20 ppm [2] | pest or weed control at 200 ppm (Alternaria solani) | inhibition of growth at 20 ppm [4] | inhibition of growth at 20 ppm [6] | pest or weed control at 200 ppm [5]
